# Measured values taken from patent US20050026968A1, “Heterocyclic amides with anti-tuberculosis activity” (priority 2003, published 2005).
# Like-named read-outs stand apart in the source and are kept apart here.
# Legend:
# [1] = target: UDP-galactose mutase (Glf) (Mycobacterium tuberculosis, UniProt P9WIQ1); test: microtitre plate based screen of Glf (enzymatic inhibition); type: biochemical; conditions: in words
# [2] = Maximum Tolerated Dose (MTD), single oral dose; conditions: mice, oral gavage, escalating dose 100, 300 and 500 mg/kg
# Protocol: An assay for Maximum Tolerated Dose (MTD) was also utilized. […] Three different concentrations are tested, generally at 100, 300 and 500 mg/kg. The latter dose is about twice to five times the dose used for efficacy testing of the compound in mice. After 7 days of observation the mice are sacrificed and the organs are studied for any adverse effects. In case of abnormalities the organs are fixed in formalin and given for extensive pathology analysis.
# Maximum tolerated dosing was performed on these selected compounds. An escalating dose of drug (100, 300 and 500 mg/kg) was given to mice by oral gavage.
# M. tuberculosis H37Ra = test: MIC against M. tuberculosis H37Ra, micro broth dilution in microtiter plates; conditions: for MIC / MIC90: Mycobacterium tuberculosis, H37RA
# M. tuberculosis = type: in vivo, mice; conditions: in words
# [3] = Table 6, M. tuberculosis H37Ra, MIC90
# Chain of UDP-galactose mutase (Glf) (P9WIQ1 whole entry): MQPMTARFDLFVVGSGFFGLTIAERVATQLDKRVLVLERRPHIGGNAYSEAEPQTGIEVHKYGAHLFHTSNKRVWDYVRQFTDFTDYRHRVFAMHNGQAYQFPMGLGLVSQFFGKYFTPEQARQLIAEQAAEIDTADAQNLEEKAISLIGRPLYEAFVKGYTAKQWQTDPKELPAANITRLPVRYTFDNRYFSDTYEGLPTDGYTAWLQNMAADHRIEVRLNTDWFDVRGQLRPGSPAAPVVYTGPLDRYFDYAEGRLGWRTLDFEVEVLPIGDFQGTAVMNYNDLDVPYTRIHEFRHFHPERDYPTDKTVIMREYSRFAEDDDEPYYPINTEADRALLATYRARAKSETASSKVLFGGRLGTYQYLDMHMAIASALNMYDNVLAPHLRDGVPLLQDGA
Compound,MIC (M. tuberculosis H37Ra; [3]) [mg/L],other results
"O=C(Nc1cccc(Cl)c1)c1ccc([N+](=O)[O-])o1 [Compound 10, 5-Nitro-furan-2-carboxylic acid(3-chloro-phenyl)-amide]",–,"enzymatic inhibition of Glf [1]: best inhibitors of GIf; maximum tolerated dosing, observed effect [2]: no effect at the maximum dose"
"O=C(Nc1cccc(F)c1)c1ccc([N+](=O)[O-])o1 [Compound 12, 5-Nitro-furan-2-carboxylic acid(3-fluoro-phenyl)-amide]",–,"maximum tolerated dosing, observed effect [2]: no effect at the maximum dose"
"COc1cccc(NC(=O)c2ccc([N+](=O)[O-])o2)c1 [Compound 13, 5-Nitro-furan-2-carboxylic acid(3-methoxy-phenyl)-amide]",–,"enzymatic inhibition of Glf [1]: best inhibitors of GIf; maximum tolerated dosing, observed effect [2]: some pathology at 500 mg/kg"
"COc1ccc(CNC(=O)c2ccc([N+](=O)[O-])o2)cc1OC [Compound 23, 5-Nitro-furan-2-carboxylic acid 3,4-dimethoxy-benzylamide]",–,"MIC (M. tuberculosis H37Ra): 200 mg/L; MIC (M. tuberculosis H37Ra; 168 h, read-out: TB MIC, Table 1, M. tuberculosis H37Ra, 7 days, MIC90 (>90% inhibition of growth)): 0.2 mg/L; MIC activity compared with classical TB drugs (FIG. 1) (M. tuberculosis H37Ra; against H37Ra, in words): as active as ethambutol and streptomycin; maximum tolerated dosing, observed effect [2]: no effect at the maximum dose; oral activity against M. tuberculosis in the mouse infection model (M. tuberculosis): significant oral activity"
"NC1CCN(c2ccc(CNC(=O)c3ccc([N+](=O)[O-])o3)cc2)C1 (stereo not drawn) [Compound 95, 5-Nitro-furan-2-carboxylic acid 4-(3-amino-pyrrolidin-1-yl)-benzylamide]",0.8,–
"CC(C)(C)OC(=O)N1CCN(c2ccc(CNC(=O)c3ccc([N+](=O)[O-])o3)cc2)CC1 [Compound 96, 4-(4-{[(5-Nitro-furan-2-carbonyl)-amino]-methyl}-phenyl)-piperazine-1-carboxylic acid tert-butyl ester]",0.0002,–
"O=C(NCc1ccc(N2CCNCC2)cc1)c1ccc([N+](=O)[O-])o1 [Compound 97, 5-Nitro-furan-2-carboxylic acid 4-piperazin-1-yl-benzylamide]",0.8,–
"O=C(NCc1ccc(N2CCN(CC3CC3)CC2)cc1)c1ccc([N+](=O)[O-])o1 [Compound 98, 5-Nitro-furan-2-carboxylic acid 4-(4-cyclopropylmethyl-piperazin-1-yl)-benzylamide]",0.05,–
"O=C(NCc1ccc(N2CCN(Cc3ccccc3)CC2)c(F)c1)c1ccc([N+](=O)[O-])o1 [Compound 99, 5-Nitro-furan-2-carboxylic acid 4-(4-benzyl-piperazin-1-yl)-3-fluoro-benzylamide]",0.0125,–
"CN1CCN(c2ccc(CNC(=O)c3ccc([N+](=O)[O-])o3)cc2F)CC1 [Compound 100, 5-Nitro-furan-2-carboxylic acid 3-fluoro-4-(4-methyl-piperazin-1-yl)-benzylamide]",0.4,–
"O=C(NCc1ccc(N2CCSCC2)c(F)c1)c1ccc([N+](=O)[O-])o1 [Compound 101, 5-Nitro-furan-2-carboxylic acid 3-fluoro-4-thiomorpholin-4-yl-benzylamide]",0.2,–
"O=C(NCc1ccc(N2CCOCC2)c(F)c1)c1ccc([N+](=O)[O-])o1 [Compound 102, 5-Nitro-furan-2-carboxylic acid 3-fluoro-4-morpholin-4-yl-benzylamide]",0.2,–
"O=C(NCc1ccc(N2CCC(Cc3ccccc3)CC2)c(F)c1)c1ccc([N+](=O)[O-])o1 [Compound 103, 5-Nitro-furan-2-carboxylic acid 4-(4-benzyl-piperidin-1-yl)-3-fluoro-benzylamide]",0.0125,–
"CCOC(=O)N1CCN(c2ccc(CNC(=O)c3ccc([N+](=O)[O-])o3)cc2)CC1 [Compound 104, 4-(4-{[(5-Nitro-furan-2-carbonyl)-amino]-methyl}-phenyl)-piperazine-1-carboxylic acid ethyl ester]",0.004,–
"CCCNC(=O)N1CCN(c2ccc(CNC(=O)c3ccc([N+](=O)[O-])o3)cc2)CC1 [Compound 105, 4-(4-{[(5-Nitro-furan-2-carbonyl)-amino]-methyl}-phenyl)-piperazine-1-carboxylic acid propylamide]",0.0125,–
"CC(C)NC(=O)N1CCN(c2ccc(CNC(=O)c3ccc([N+](=O)[O-])o3)cc2)CC1 [Compound 106, 4-(4-{[(5-Nitro-furan-2-carbonyl)-amino]-methyl}-phenyl)-piperazine-1-carboxylic acid isopropylamide]",0.0062,–
"NNC(=O)c1ccncc1 [Isoniazid, isoniazid, reference compound]",–,MIC90 (M. tuberculosis H37Ra): 0.05 mg/L
"CC[C@@H](CO)NCCN[C@@H](CC)CO [ethambutol, reference compound]",–,MIC90 (M. tuberculosis H37Ra): 0.78 mg/L
